Where a SMILES comes first, the peptide text is derived from it.
What was measured:
mTOR = details: piglets; cited from earlier work
[1] = system: human pulmonary microvascular endothelial cells (Hpmec); test: Microvascular angiogenesis (sprouting) assay in Matrigel; assay type: cell-based; details: t=16, 24 and 40h (P=0.48, 0.011 and 0.032)
Excerpt: Microvascular angiogenesis assay of human pulmonary microvascular endothelial cells grown in Matrigel as determinant of ERC-reactivity and in response to increasing concentrations of GXXP-peptides 3, 6 and 8, (VGVAPGVGVAPGVGVAPG, QVGQVELGGGPGAGSLQP and GAYPGAPGAYPGAPAPGV, taken from the exon 24 region of human elastin, from the mid-portion of human C-peptide, and from the N-terminal portion of human Galectin-3, FIGS. 4a, 4b and 4c, respectively). Data shown are total tube length measurements and total branch length measurements at t=24 h. * p<0.05; ** p<0.01; *** p<0.001. At 4 h no angiogenic activity of the various peptides was as yet observed.
As measuring insulin resistance in vitro is a cumbersome feat, the effect of three elastin fragment peptides and related GXXP-peptides on endothelial cell sprouting were assessed instead. Endothelial cells (Hpmec, n=4) were serum starved for 24 hours, trypsinised and seeded in growth factor-reduced Matrigel. […] Sprouting by means of mean total tube length and mean total branch length per field of view were quantified with ImageJ software. […]
Pictures were analyzed using the plug-in angiogenesis analyzer in ImageJ. […]

Na+, K+-ATPase [2] = details: cited from earlier work
[3] = in vivo; cited from earlier work
Na+, K+-ATPase [4] = details: rat renal tubular segments; peptides tested at 5×10^-7 mol/l; cited from earlier work
Na+, K+-ATPase [5] = details: purified preparation of Na+,K+-ATPase; cited from earlier work
human skin fibroblast = details: cited from earlier work
[6] = system: fibroblasts and monocytes; details: cited from earlier work
[7] = single infusion, healthy adults; cited from earlier work
[8] = infants >2 years of age; cited from earlier work

Molecule: C[C@H](N)C(=O)N[C@@H](CCC(N)=O)C(=O)O [AQ, Alanyl-glutamine] (H-Ala-Gln-OH)
- autophagy / mTOR modulation (mTOR): autophagy-inhibition

Molecule: CC(=O)N[C@H]1[C@H]([C@H](O)[C@H](O)CO)OC(C(=O)O)=C[C@@H]1O [DANA, 2,3-dehydro-2-deoxy-N-acetylneuraminic acid]
- effect on the angiogenic effects of peptide 3 [1]: significantly potentiated

Molecule: CN(C)CCCn1cc(C2=C(c3c[nH]c4ccccc34)C(=O)NC2=O)c2ccccc21 [G F109203X]
- effect on C-peptide stimulation of 86Rb+ uptake (Na+, K+-ATPase [2]; 1 μM preincubation, PKC inhibitor): abolished

Molecule: COc1cccc(-c2cc(=O)c3ccccc3o2)c1N [PD98059]
- effect on C-peptide-stimulated Na+,K+-ATPase activation, α1-subunit phosphorylation and translocation to BLM (Na+, K+-ATPase [2]; 20 μM, MEK1/2 inhibitor): abolished

Molecule: C[C@@H](O)[C@@H]1NC(=O)[C@H](CCCCN)NC(=O)[C@@H](Cc2c[nH]c3ccccc23)NC(=O)[C@H](Cc2ccccc2)NC(=O)[C@@H](NC(=O)[C@H](N)Cc2ccccc2)CSSC[C@@H](C(=O)N[C@H](CO)[C@@H](C)O)NC1=O [octreotide]
- half-life [3]: around 100 min

Molecule: EGSLQ
- activity relative to intact C-peptide (Na+, K+-ATPase [4]): 75%
- activity relative to the intact molecule (Na+, K+-ATPase [2]; HRTCs): 57%

Molecule: ELGGGPEAG [PG-domain peptide of rat C-peptide 1]
- direct activation of isolated ATPase (Na+, K+-ATPase [5]): No measurable activation

Molecule: EVARQ
- activity relative to intact C-peptide (Na+, K+-ATPase [4]): 100%
- direct activation of isolated ATPase (Na+, K+-ATPase [5]): No measurable activation

Molecule: VGVAPG [Chemotactic Domain of Elastin, Bachem product number 4010536]
- fibroblast proliferation (human skin fibroblast): stimulated human skin fibroblast proliferation
- chemotactic activity [6]: chemotactic for fibroblasts and monocytes

Molecule: human C-peptide: cleavage product of the proinsulin molecule (RREAEDLQVGQVELGGGPGAGSLQPLALEGSLQKR)
- stimulation of 86Rb+ uptake (Na+, K+-ATPase [2]; 5 nM, 37° C., 10 min, HRTCs): 40%

B1: XOMA 358: antibody XOMA 358 (aka RZ358), monoclonal antibody given by infusion (antibody, chains of the INN, looked up, V domains shown)
VH: EVQLVETGGGVVQPGRSLRLSCAASGFTFSSYAMHWVRQAPGKGLEWYAVISYDGSNKYYADSVKGRFTISRDNSKNTLYLQMNSLRAEDTAVYYCARHEWGFGMDVWGQGTTVTVSS
VL: DVVMTQSPLSLSVTLGQPASISCRSSLSLVYGDENTYLNWFQQRPGQSPRRLLYKVSDRDSGVPDRFSGSGSGTDFTLKISRVEADDVGVYYCMQGTHWPYTFGQGTKLEIK
- insulin sensitivity [7]: dose-dependent reduction in insulin sensitivity
- hypoglycemia [8]: reduction of hypoglycemia

— patent US20260263551A1, “TREATING CONDITIONS WITH HYPOGLYCEMIA ASSOCIATED WITH HYPERINSULINEMIA” (RESILIUN B.V., priority 2022, published 2026)
